Laboratory results: patent US6596854B2, “Isolated nucleic acid molecule encoding a variant human eukaryotic Intiation Factor 4E protein” (Emory University, priority 1996, dated 2003)
“Also recorded” adds a separate entry of the source.

Experiments:
[1] = test system: translation of globin mRNA; assay: Cell-free translation in eIF-4E-depleted rabbit reticulocyte lysates; assay type: biochemical
Protocol: Translational activity of eIF-4E variants: The ability of eIF-4E variants to initiate translation was examined in rabbit reticulocyte lysates which were depleted of endogenous eIF-4E by m^7GTP-Sepharose chromatography [Svitkin Y. V. et al. (1996) EMBO J. 15:7147-7155]. Western blotting analysis using anti-eIF-4E antibodies detected no eIF-4E in lysates after chromatography. […] The relative abilities of eIF-4E variants to restore globin mRNA translation were tested for all variants except W113A.
Cell-free translations: Nuclease-treated rabbit reticulocyte lysates (Promega) were depleted of endogenous eIF-4E by chromatography on m^7GTP-Sepharose according to the previously described protocol (Svitkin et al. 1996, supra). Aliquots of eIF-4E-depleted lysates were stored in liquid nitrogen vapor. eIF-4E depletion was verified by Western blotting analysis (data not shown). Cell-free translations were performed at 30° C. as described in detail in the Promega technical manual. […] In the case of L117A, which was not highly purified, a sufficient quantity of the preparation was added to approximate 75 ng of L117A. […] Dried filter papers were placed in vials with scintillation liquid and [^35S]methionine incorporated into protein was quantitated by liquid scintillation spectrometry.

[2] = biological target: m^7GTP (mRNA cap structure); assay: Fluorescence quenching of intrinsic tryptophan of eIF-4E upon m^7GTP binding
Protocol: FIGS. 4A and 4B. […] The fluorescence intensity of recombinant human eIF-4E binding to m^7GTP as a function of m^7GTP concentration was measured. All solutions were prepared in buffer A at pH 7.6, 25° C. and the concentration of eIF-4E was 1 μM. An excitation wave length of 280 nm was used to monitor the fluorescence intensity at 330 nm.
Fluorescence measurements were made at 25° C. on a SPEX Fluorolog-T2 spectrofluorometer equipped with a high intensity (450 w) xenon arc lamp. An excitation wave length of 280 nm was used to monitor the tryptophan fluorescence emission of recombinant eIF-4E at 330 nm. Excitation and emission slit widths of 1.4 and 2.0 mm respectively were used and a 1.0 cm sample cell pathlength was employed. The buffer used for all fluorescence measurements was 20 mM HEPES at pH 7.6 and 1 mM DTT (designated Buffer A in FIG. 4). The steady state data were collected and analyzed as described previously [Carberry, S. E. et al. (1989) Biochemistry 28:8078-8083; Carberry, S. E. et al. (1990) Biochemistry 29:3337-3341. An excitation wavelength of 289 nm was used to monitor the tryptophan fluorescence emission of the proteins. Excitation and emission slit widths of 1.5 mm and 2.0 mm respectively were used and cell path length was 1.0 cm.
The preparation of large quantities of recombinant eIF-4E variants allowed us to directly determine the Kd of binding to the mRNA cap structure. Quantitation was performed by measuring the fluorescence quenching of intrinsic tryptophan residues in eIF-4E upon m^7GTP binding at 25≅ C. (Example 3). […] This is possibly a consequence of a lower stability of these variants at the higher temperature in the fluorescence quenching assay.

[3] = assay type: physicochemical, E. coli
Protocol: Purification was carried out essentially as described by Hagedorn, et al. (1997) Protein Expression and Purif. 9:53-60, which is incorporated herein by reference. BL21(DE3) cells expressing human eIF-4E were grown in M9ZB media with ampicillin to an OD600 of 0.6-0.7 at which time cultures were induced with 0.4 mM IPTG [Studier, F. W. et al. (1990) supra]. […] Culture media was centrifuged at 500×g for 15 min, and E. coli pellets were suspended in 3 ml of 50 mM Tris-HCl pH 8.0, 100 mM KCl, 1 mM EDTA, 1 mM DTT, 1 mM PMSF, and 0.1 mg/ml lysozyme per gram wet weight. Samples were stirred intermittently on ice for 15 min and sonicated. Triton X-100 was added to a final concentration of 0.1%. The samples were mixed for 15 min at 4° C. and centrifuged at 15,000 rpm in a Sorvall SS-34 rotor for 20 min. Supernatants were used as starting material for subsequent chromatography purification steps.
In order to assess the solubility of each variant, cells were lysed and centrifuged as described supra. Supernatants prepared from equivalent wet weights of cells were analyzed by SDS-PAGE and Western blotting with anti-eIF-4E antibodies. Supernatants from all variants contained soluble eIF-4E. […] Except for the W113A and L117A variants, no major differences in solubility were observed among the other alanine variants studied.

eIF-4E = biological target: T1, eIF-4E (Homo sapiens, UniProt P06730); assay: Photoaffinity labeling of eIF-4E with labeled GTP analog; assay type: binding; conditions: competition and saturation
T1 construct: made in house; host or cells: E. coli BL21(DE3), pET-3d
T1 sequence (P06730 whole entry): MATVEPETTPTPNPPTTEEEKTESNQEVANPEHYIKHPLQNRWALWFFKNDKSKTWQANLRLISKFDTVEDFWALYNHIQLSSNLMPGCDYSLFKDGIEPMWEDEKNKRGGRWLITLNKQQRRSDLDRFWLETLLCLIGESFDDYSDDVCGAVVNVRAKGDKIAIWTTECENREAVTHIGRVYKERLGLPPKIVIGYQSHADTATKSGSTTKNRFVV
Excerpt: Studies on the binding site of eIF-4E have defined a sequence of amino acids, involved in binding m^7G-RNA extending approximately from positions 112-123, numbering from the translation start site. The region of amino acids involved in the binding of eIF-4E to m^7G-RNA was identified using photoaffinity labeling with a labeled analog, [γ-^32P] 8-N3GTP. [Jayaram, B. et al. (1994) J. Biol. Chem. 269:3233-3242; Shoemaker, M. T. et al. (1993) J. Biol. Chem. 32:1883-1890; Salvucci, M. E. et al. (1992) Biochemistry 31:4479-4487]. […] The analog binding to eIF-4E was rendered irreversible by a photo-chemical reaction and a tryptic peptide bearing the analog label was isolated by aluminum-III chelate chromatography and reverse phase HPLC. Once the binding region peptide was identified, it was then possible to employ alanine-scanning mutations to determine the contribution of specific amino acid residues to the binding, and to generate modified eIF-4E proteins with altered binding affinities. Modified eIF-4E analog proteins having either increased or decreased binding affinities have been made. […] Enhanced binding affinity can lead to increased capped RNA stability and increased duration of expression. Decreased binding affinity can be of value where sensitivity to regulatory influences is desired. […]

Q: With `Cn1c[n+]([C@@H]2O[C@H](COP(=O)(O)OP(=O)([O-])O)[C@@H](O)[C@H]2O)c2nc(N)[nH]c(=O)c21` [m^7GDP, reference compound] as the molecule, how does the “effect on eIF-4E-dependent translation” value ([1]; added to incubation containing wild-type eIF-4E) read?
A: inhibited the eIF-4E-dependent translation

Q: For “wild-type eIF-4E: purified recombinant human eukaryotic Initiation Factor 4E expressed in E. coli, non-phosphorylated”, which Kd ([2]; Kd for m^7GTP, fluorescence quenching, 25 C, read-out: Binding constant Kd) is on record?
A: 140 nM

Q: And the equilibrium binding constant ([2]; binding to m^7GTP, pH 7.6 (20 mM HEPES buffer+1 mM DTT), 25° C.)?
A: 10.1±0.3 ×10^5M^−1

Q: And the “equilibrium binding constant relative to results obtained using native human eIF-4E” value ([2]; compared with Carberry 1989)?
A: 1.5-2 times higher

Q: And the binding constant ([2]; in vitro, worded as binding to m^7G-RNA)?
A: 10.1±0.3 ×10^5M^−1

Q: And the “increase in the translation of globin mRNA” value ([1]; addition to eIF-4E-depleted lysate)?
A: 2-4 fold

Q: And the “fraction of eIF-4E expressed in E. coli that was soluble” value [3]?
A: Note: Approximately 1-5% of the eIF-4E expressed in E. coli was soluble as estimated by Coomassie blue staining of SDS-PAGE analyzed samples.

Q: Which “binding of analog to eIF-4E” value (eIF-4E) does the source give for `[N-]=[N+]=Nc1nc2c(=O)[nH]c(N)nc2n1C1OC(COP(=O)(O)OP(=O)(O)O[32P](=O)(O)O)C(O)C1O` (centres unmarked) [[γ-^32P] 8-N3GTP] here?
A: bind to eIF-4E in competition with m^7GTP and with capped RNA; also recorded: the binding site was saturated by the analog
